# Results as given in PubChem BioAssay (NCI).
#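 Cells were grown in 96-well plates and exposed to each compound for 48 hours at five concentrations; endpoints were interpolated linearly between bracketing concentrations, or set to the highest concentration if not reached. GI50 marks 50% less growth. At the TGI there is no net growth.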
# Key:
# Experiment in all cases: inhibition of tumour cell growth, NCI panel, 48 h
# 786-0 renal = system: 786-0 renal
# A549 NSCLC = system: A549 NSCLC
# CCRF-CEM leukemia = system: CCRF-CEM leukemia
# EKVX NSCLC = system: EKVX NSCLC
# HCT-116 colon = system: HCT-116 colon
# K-562 leukemia = system: K-562 leukemia
# SNB-19 CNS = system: SNB-19 CNS
# SW-620 colon = system: SW-620 colon
# T-47D breast = system: T-47D breast
# UACC-62 melanoma = system: UACC-62 melanoma
SMILES,GI50 (786-0 renal) [µM],TGI (786-0 renal) [µM],GI50 (A549 NSCLC) [µM],TGI (A549 NSCLC) [µM],GI50 (CCRF-CEM leukemia) [µM],TGI (CCRF-CEM leukemia) [µM],GI50 (EKVX NSCLC) [µM],TGI (EKVX NSCLC) [µM],GI50 (HCT-116 colon) [µM],TGI (HCT-116 colon) [µM],GI50 (K-562 leukemia) [µM],TGI (K-562 leukemia) [µM],GI50 (SNB-19 CNS) [µM],TGI (SNB-19 CNS) [µM],GI50 (SW-620 colon) [µM],TGI (SW-620 colon) [µM],GI50 (T-47D breast) [µM],TGI (T-47D breast) [µM],GI50 (UACC-62 melanoma) [µM],TGI (UACC-62 melanoma) [µM]
N#Cc1nc(-c2ccc(F)cc2)oc1S(=O)(=O)N1CCCCC1,1.8,3.53,6.9,27.1,0.954,> 100,1.86,3.96,1.79,3.54,2.43,> 100,11,23,1.89,4.11,2.13,5.44,1.62,3.01
C=CC(=O)N1CCC(c2ccc(C(N)=O)c(-c3ccc(Oc4ccccc4)cc3)n2)CC1,31.9,> 100,28.9,> 100,33.9,> 100,21.5,> 100,35.9,> 100,26.9,> 100,47.9,> 100,41.2,> 100,16.1,95.7,30,> 100
CCOC(=O)N1C/C(=C\c2ccccc2)C(=O)/C(=C/c2ccccc2)C1,,9.15,,54.3,,5.79,,31.8,,2.75,,> 38.3,,20.2,,3.7,,> 31.6,,6.51
CCCCCCCCCCCC1=NC(C)(C)CN1C(C)(C)CO,1.93,3.89,6.53,19.6,2.94,12.4,2.77,16.9,1.56,3.06,1.84,4.38,5.15,20.2,1.67,3.08,2.05,5.31,1.86,3.54
COc1cc(-c2nc3ccccc3s2)ccc1OCCCCOc1cc2c(cc1OC)C(=O)N1CCC[C@H]1C=N2,0.9,2.17,2.8,7.91,0.102,2.1,2.24,5.51,0.57,2.19,0.372,5.88,1.57,4.11,0.801,2.72,0.407,2.03,1.41,2.84
OC1(c2ccccc2)C2CC=CC2C1(c1ccccc1)c1ccccc1 (stereo not drawn),,> 100,,> 100,,> 100,,76.4,,> 100,,> 100,,> 100,,> 100,,> 100,,> 100
CN1C(=O)c2ccc3ccccc3c2C1=O,,> 100,,> 100,,> 100,,87.2,,> 100,,> 100,,> 100,,> 100,,> 100,,> 100
Cc1ccc(/C=C/c2c(C(=O)/C=C/c3ccccc3)c(C)nc3ccccc23)cc1,1.63,3.05,2.04,5.6,1.69,> 100,1.85,3.58,0.762,2.2,1.73,5.38,1.66,3.08,1.58,4.61,1.28,4.32,1.58,3.16
O=[N+]([O-])c1cccc(/C=N/NC2=CS(=O)(=O)C=C2)c1,,> 100,,> 100,,> 100,,> 100,,> 100,,> 100,,> 100,,> 100,,> 100,,> 100
O=C(CCN1CCCC1)Nc1ccc2c(NCc3ccccc3)c3ccccc3nc2c1,0.684,1.99,0.352,1.68,0.493,,0.448,2.34,0.309,1.31,0.385,1.41,0.408,1.83,0.316,1.44,0.562,2.89,0.454,1.67
COc1ccc(C(=O)Cn2c(C(=O)c3ccccc3)nc3ccccc32)cc1,9.31,> 100,6.05,> 100,2.87,> 58.1,7.21,> 100,2.25,> 100,0.54,> 100,6.74,> 100,1.15,> 100,3.87,> 100,,> 100
CCCn1c2c(c3c(O)cccc31)C(=O)c1ccccc1-2,14.6,52.2,21.8,> 100,> 100,> 100,15.9,> 100,29.2,> 100,> 100,> 100,25.5,> 100,> 100,> 100,10,> 100,15.2,69.3
C[C@H]1[C@H](C)N1CC(O)Cn1ccnc1[N+](=O)[O-] (stereo partly drawn),,> 100,,> 100,,> 100,,> 100,,> 100,,> 100,,> 100,,> 100,,> 100,,> 100
NC(=N\N=C/c1ccc(O)cc1)/C(N)=N\N=C/c1ccc(O)cc1,21.1,> 100,> 25.5,> 100,0.324,> 100,> 87.9,> 100,> 100,> 100,0.782,> 100,62.5,> 100,> 23.6,> 100,13.6,> 100,2.22,> 52
COC(C)(C)[C@@H](O)[C@H](O)C[C@H](C)C1=C2CC[C@@H]3[C@@]4(C)CC[C@@H](OC(C)=O)C(C)(C)[C@@H]4C[C@@H](OC4OC(COC(C)=O)C(O)C(O)C4O)[C@@]3(C)[C@]2(C)CC1 (stereo partly drawn),14.4,27.5,7.77,20.3,5.34,19.9,13,26.2,6.09,19.2,6.06,22.3,12.2,25.1,15.7,30.1,12.6,25.6,8.79,21.7
O=C1CCc2c(sc3[nH]c(=S)n(-c4cc(C(F)(F)F)cc(C(F)(F)F)c4)c(=O)c23)C1,0.602,10.5,0.707,11.3,0.349,5.81,0.378,5.14,0.341,2.54,0.185,> 73.1,0.384,> 37,0.376,15.7,0.385,2.46,0.294,1.23
CC1=CC2C(C(O)CC3(C)C2CC(C)C32OCOC23COCO3)C2(C)C/C(=C/O)C(=O)C=C12 (stereo not drawn),1.83,3.55,3.02,10.7,1.05,3.61,2.31,7.48,1.49,2.97,2.09,5.73,3.22,12,1.65,3.32,2.33,5.73,1.76,3.83
